21 molecules from patent publication US10669285B2, “Condensed [1,4] diazepine compounds as autotaxin (ATX) and lysophosphatidic acid (LPA) production inhibitors” (Hoffmann-La Roche Inc., priority 2014, dated 2020) can be followed below.

Broadly, the IC50 is the point on the concentration scale where inhibition reaches its midpoint.

This test addresses ATX (human His-tagged) (Homo sapiens (Human), UniProt Q13822). Description: Human ATX enzyme inhibition assay (fluorescence quenching, MR121 substrate). In kind it is biochemical. Conditions: inhibitory activity against ATX; 30 nM ATX, 1 μM MR121 substrate, 30° C. The procedure: Human ATX Enzyme Inhibition Assay
ATX inhibition was measured by a fluorescence quenching assay using a specifically labeled substrate analogue (MR121 substrate). To obtain this MR121 substrate, BOC and TBS protected 6-amino-hexanoic acid (R)-3-({2-[3-(2-{2-[2-(2-amino-ethoxy)-ethoxy]-ethoxy}-ethoxy)-propionylamino]-ethoxy}-hydroxy-phosphoryloxy)-2-hydroxy-propyl ester (Ferguson et al., Org Lett 2006, 8 (10), 2023) was labeled with MR121 fluorophore (CAS 185308-24-1, 1-(3-carboxypropyl)-11-ethyl-1,2,3,4,8,9,10,11-octahydro-dipyrido[3,2-b:2′,3′-i]phenoxazin-13-ium) on the free amine of the ethanolamine side and then, after deprotection, subsequently with tryptophan on the side of the aminohexanoic acid.
Assay working solutions were made as follows:
Assay buffer (50 mM Tris-HCl, 140 mM NaCl, 5 mM KCl, 1 mM CaCl2, 1 mM MgCl2, 0.01% Triton-X-100, pH 8.0;
ATX solution: ATX (human His-tagged) stock solution (1.08 mg/mL in 20 mM bicine, pH 8.5, 0.15 M NaCl, 10% glycerol, 0.3% CHAPS, 0.02% NaN3), diluted to 1.4-2.5× final concentration in assay buffer;
MR121 substrate solution: MR121 substrate stock solution (800 μM MR121 substrate in DMSO), diluted to 2-5× final concentration in assay buffer.
Test compounds (10 mM stock in DMSO, 8 μL) were obtained in 384 well sample plates (Corning Costar #3655) and diluted with 8 μL DMSO. Row-wise serial dilutions were made by transferring 8 μL cpd solution to the next row up to […]. The compound and control solutions were mixed five times and 2 μL were transferred to 384 well assay plates (Corning Costar #3702). Then, 15 μL of 41.7 nM ATX solution was added (30 nM final concentration), mixed five times and then incubated for 15 minutes at 30° C. 10 μL of MR121 substrate solution was added (1 μM final concentration), mixed 30 times and then incubated for 15 minutes at 30° C. Fluorescence was then measured every 2 minutes for 1 hour (Perkin Elmer plate: vision multimode reader); light intensity: 2.5%; exp. time: 1.4 sec, Filter: Fluo_630/690 nm) and IC50 values were calculated from these readouts.
On to `O=C(CCc1ccc(OC(F)(F)F)c(Cl)c1)N1CCc2nc(C(=O)N3CCc4[nH]nnc4C3)nn2CC1` [Example 23, 3-[3-chloro-4-(trifluoromethoxy)phenyl]-1-[2-(1,4,6,7-tetrahydrotriazolo[4,5-c]pyridine-5-carbonyl)-5,6,8,9-tetrahydro-[1,2,4]triazolo[1,5-d][1,4]diazepin-7-yl]propan-1-one], for which the IC50 amounted to 50 nM.

On to `O=C(c1cc(OCC2CCOCC2)nc(C2CC2)c1)N1CCc2cc(C(=O)N3CCc4[nH]nnc4C3)nn2CC1` [Example 24, (6-(2-cyclopropyl-6-((tetrahydro-2H-pyran-4-yl)methoxy)isonicotinoyl)-5,6,7,8-tetrahydro-4H-pyrazolo[1,5-d][1,4]diazepin-2-yl)(6,7-dihydro-1H-[1,2,3]triazolo[4,5-c]pyridin-5(4H)-yl)methanone], for which the IC50 is 9 nM. `O=C(/C=C/c1ccc(OC(F)F)c(F)c1)N1CCc2cc(C(=O)N3CCc4[nH]nnc4C3)nn2CC1` [Example 25, (E)-3-[4-(difluoromethoxy)-3-fluorophenyl]-1-[2-(1,4,6,7-tetrahydrotriazolo[4,5-c]pyridine-5-carbonyl)-4,5,7,8-tetrahydropyrazolo[1,5-d][1,4]diazepin-6-yl]prop-2-en-1-one] yielded an IC50 of 7 nM. `O=C(CCc1ccc(OC(F)F)c(F)c1)N1CCc2cc(C(=O)N3CCc4[nH]nnc4C3)nn2CC1` [Example 26, 3-[4-(difluoromethoxy)-3-fluorophenyl]-1-[2-(1,4,6,7-tetrahydrotriazolo[4,5-c]pyridine-5-carbonyl)-4,5,7,8-tetrahydropyrazolo[1,5-d][1,4]diazepin-6-yl]propan-1-one] came in with an IC50 of 16 nM. For the molecule `COc1ccc(COC(=O)N2CCc3cc(C(=O)N4CCc5[nH]nnc5C4)nn3CC2)cc1` [Example 27, 4-methoxybenzyl 2-(4,5,6,7-tetrahydro-1H-[1,2,3]triazolo[4,5-c]pyridine-5-carbonyl)-7,8-dihydro-4H-pyrazolo[1,5-d][1,4]diazepine-6(5H)-carboxylate], the IC50 turned out to be 52 nM. `O=C(OCc1ccc(F)cc1)N1CCc2cc(C(=O)N3CCc4[nH]nnc4C3)nn2CC1` [Example 28, 4-fluorobenzyl 2-(4,5,6,7-tetrahydro-1H-[1,2,3]triazolo[4,5-c]pyridine-5-carbonyl)-7,8-dihydro-4H-pyrazolo[1,5-d][1,4]diazepine-6(5H)-carboxylate]: the IC50 turned out to be 76 nM.

Molecule `O=C(OCc1cccc(F)c1)N1CCc2cc(C(=O)N3CCc4[nH]nnc4C3)nn2CC1` [Example 29, 3-fluorobenzyl 2-(4,5,6,7-tetrahydro-1H-[1,2,3]triazolo[4,5-c]pyridine-5-carbonyl)-7,8-dihydro-4H-pyrazolo[1,5-d][1,4]diazepine-6(5H)-carboxylate] gave an IC50 of 38 nM. To `O=C(OCc1ccc(F)c(F)c1)N1CCc2cc(C(=O)N3CCc4[nH]nnc4C3)nn2CC1` [Example 30, (3,4-difluorophenyl)methyl 2-(1,4,6,7-tetrahydrotriazolo[4,5-c]pyridine-5-carbonyl)-4,5,7,8-tetrahydropyrazolo[1,5-d][1,4]diazepine-6-carboxylate] belongs 41 nM. With `O=C(OCc1ccc(OC(F)F)c(F)c1)N1CCc2cc(C(=O)N3CCc4[nH]nnc4C3)nn2CC1` [Example 31, 4-(difluoromethoxy)-3-fluorobenzyl 2-(4,5,6,7-tetrahydro-1H-[1,2,3]triazolo[4,5-c]pyridine-5-carbonyl)-7,8-dihydro-4H-pyrazolo[1,5-d][1,4]diazepine-6(5H)-carboxylate], the IC50 came out at 22 nM.

Regarding `COc1ccc(COC(=O)N2CCc3cc(C(=O)N4CCc5[nH]nnc5C4)nn3CC2)cc1F` [Example 32, 3-fluoro-4-methoxybenzyl 2-(4,5,6,7-tetrahydro-1H-[1,2,3]triazolo[4,5-c]pyridine-5-carbonyl)-7,8-dihydro-4H-pyrazolo[1,5-d][1,4]diazepine-6(5H)-carboxylate], the IC50 was determined as 30 nM. To `COc1ccc(COC(=O)N2CCc3cc(C(=O)N4CCc5[nH]nnc5C4)nn3CC2)c(C)c1` [Example 33, 4-methoxy-2-methylbenzyl 2-(4,5,6,7-tetrahydro-1H-[1,2,3]triazolo[4,5-c]pyridine-5-carbonyl)-7,8-dihydro-4H-pyrazolo[1,5-d][1,4]diazepine-6(5H)-carboxylate] belongs 94 nM; to `O=C(OCc1ccc(C2CC2)cc1)N1CCc2cc(C(=O)N3CCc4[nH]nnc4C3)nn2CC1` [Example 34, 4-cyclopropylbenzyl 2-(4,5,6,7-tetrahydro-1H-[1,2,3]triazolo[4,5-c]pyridine-5-carbonyl)-7,8-dihydro-4H-pyrazolo[1,5-d][1,4]diazepine-6(5H)-carboxylate], 7 nM; to `O=C(OCc1ccc(OC(F)(F)F)cc1F)N1CCc2nc(C(=O)N3CCc4[nH]nnc4C3)nn2CC1` [Example 35, [2-fluoro-4-(trifluoromethoxy)phenyl]methyl 2-(1,4,6,7-tetrahydrotriazolo[4,5-c]pyridine-5-carbonyl)-5,6,8,9-tetrahydro-[1,2,4]triazolo[1,5-d][1,4]diazepine-7-carboxylate], 13 nM. Next, `O=C(OCc1ccc(OC(F)(F)F)c(F)c1)N1CCc2nc(C(=O)N3CCc4[nH]nnc4C3)nn2CC1` [Example 36, [3-fluoro-4-(trifluoromethoxy)phenyl]methyl 2-(1,4,6,7-tetrahydrotriazolo[4,5-c]pyridine-5-carbonyl)-5,6,8,9-tetrahydro-[1,2,4]triazolo[1,5-d][1,4]diazepine-7-carboxylate]: 6 nM; `O=C(OCc1ccc(OC(F)(F)F)c(Cl)c1)N1CCc2cc(C(=O)N3CCc4[nH]nnc4C3)nn2CC1` [Example 37, 3-chloro-4-(trifluoromethoxy)benzyl 2-(4,5,6,7-tetrahydro-1H-[1,2,3]triazolo[4,5-c]pyridine-5-carbonyl)-7,8-dihydro-4H-pyrazolo[1,5-d][1,4]diazepine-6(5H)-carboxylate]: 9 nM.

As for `COc1cc(OC(F)(F)F)ccc1COC(=O)N1CCc2cc(C(=O)N3CCc4[nH]nnc4C3)nn2CC1` [Example 38, 2-methoxy-4-(trifluoromethoxy)benzyl 2-(4,5,6,7-tetrahydro-1H-[1,2,3]triazolo[4,5-c]pyridine-5-carbonyl)-7,8-dihydro-4H-pyrazolo[1,5-d][1,4]diazepine-6(5H)-carboxylate], the IC50 was 21 nM. The molecule `Cc1cc(OC(F)(F)F)ccc1COC(=O)N1CCc2cc(C(=O)N3CCc4[nH]nnc4C3)nn2CC1` [Example 39, 2-methyl-4-(trifluoromethoxy)benzyl 2-(4,5,6,7-tetrahydro-1H-[1,2,3]triazolo[4,5-c]pyridine-5-carbonyl)-7,8-dihydro-4H-pyrazolo[1,5-d][1,4]diazepine-6(5H)-carboxylate] displayed an IC50 of 14 nM. In turn, `O=C(OCc1ccc(OCC(F)(F)F)cc1)N1CCc2cc(C(=O)N3CCc4[nH]nnc4C3)nn2CC1` [Example 40, 4-(2,2,2-trifluoroethoxy)benzyl 2-(4,5,6,7-tetrahydro-1H-[1,2,3]triazolo[4,5-c]pyridine-5-carbonyl)-7,8-dihydro-4H-pyrazolo[1,5-d][1,4]diazepine-6(5H)-carboxylate] registered an IC50 of 17 nM. Next, `O=C(OCc1ccc(OC(F)(F)F)c(Cl)c1)N1CCc2nc(C(=O)N3CCc4[nH]nnc4C3)nn2CC1` [Example 41, [3-chloro-4-(trifluoromethoxy)phenyl]methyl 2-(1,4,6,7-tetrahydrotriazolo[4,5-c]pyridine-5-carbonyl)-5,6,8,9-tetrahydro-[1,2,4]triazolo[1,5-d][1,4]diazepine-7-carboxylate]: 6 nM; `O=C(OCc1ccc(OC(F)(F)F)c(Cl)c1)N1CCc2nc(C(=O)N3CCc4[nH]nnc4C3)cn2CC1` [Example 42, [3-chloro-4-(trifluoromethoxy)phenyl]methyl 2-(1,4,6,7-tetrahydrotriazolo[4,5-c]pyridine-5-carbonyl)-5,6,8,9-tetrahydroimidazo[1,2-d][1,4]diazepine-7-carboxylate]: 7 nM; `O=C1N[C@@H]2CCN(C(=O)c3nc4n(n3)CCN(C(=O)OCc3ccc(OC(F)(F)F)c(F)c3)CC4)C[C@H]2O1` [Example 43, 3-fluoro-4-(trifluoromethoxy)benzyl 2-((3aR,7aR)-2-oxooctahydrooxazolo[5,4-c]pyridine-5-carbonyl)-8,9-dihydro-5H-[1,2,4]triazolo[1,5-d][1,4]diazepine-7(6H)-carboxylate]: 56 nM.
